Assay [1] relates to A/Virginia/ATCC3/2009 (2009 pandemic A/H1N1). It counts as cell-based, influenza A virus. As to conditions: read-out: Antiviral activity (EC50) A/2009pan.
In another assay the test system is A/X-31 (A/H3N2). It counts as cell-based, influenza A virus. As to conditions: read-out: Antiviral activity (EC50) A/X-31.
Another assay has as its system A/PR/8/34 4 #8 cl3. In words: microbe, parasite or virus in culture. The class given is cell-based. The following applies: Influenza A virus, PR/8, pH 5.7, read-out: Antiviral activity (EC50), 4 #8 cl3.
The next assay has as its system A/PR/8/34 6c #8 cl3. In words: microbe, parasite or virus in culture. It counts as cell-based. As to conditions: Influenza A virus, PR/8, pH 5.5, read-out: Antiviral activity (EC50), 6c #8 cl3.
The target in another assay is S31N mutant A/M2 (Influenza A virus, UniProt P0DOF5, S31N). It counts as biochemical, influenza A/Udorn/72.
Another assay deals with V27A mutant A/M2 (Influenza A virus, UniProt P0DOF5, V27A). The class given is biochemical, influenza A/Udorn/72.
The subject of the next assay is A/H1N1 (A/PR/8/34). In words: microbe, parasite or virus in culture. The class given is cell-based, influenza A virus. As to conditions: read-out: Antiviral activity (EC50) A/PR/8/34.

A value given as a limit tells only on which side of the number the result lay.

The values below come from paper PMC7114147 (Antiviral Research, 2013).

Turning to `NC12CC3CC(CC(C3)C1)C2` [Amantadine, amantadine], the EC50 in assay [1] was 137 ± 10 µM; in the assay on A/X-31 (A/H3N2), 61 ± 12 µM; in the assay on A/PR/8/34 4 #8 cl3, over 250 µM; with A/PR/8/34 6c #8 cl3, over 250 µM.
With `C1=CC2C3C4C5C=CC4C24CNCC54C13` [Compound 3, 3-azahexacyclo[7.6.0.0^1,5.0^5,12.0^6,10.0^11,15]pentadeca-7,13-diene], on S31N mutant A/M2, the “Activity against S31N mutant A/M2” value was “inactive”. In addition, on V27A mutant A/M2, the “Activity against V27A mutant A/M2” value is “inactive”.
With `CCC(CC)O[C@@H]1C=C(C(=O)O)C[C@H](N)[C@H]1NC(C)=O` [Oseltamivir carboxylate], the EC50 came out at 21 ± 9 µM in the assay with A/H1N1 (A/PR/8/34) and 0.11 ± 0.05 µM in the assay with A/X-31 (A/H3N2).
For the compound `NC(=O)c1ncn([C@@H]2O[C@H](CO)[C@@H](O)[C@H]2O)n1` [Ribavirin], the EC50 with A/H1N1 (A/PR/8/34) was 8.7 ± 0.7 µM; in assay [1], 11 ± 1 µM; with A/X-31 (A/H3N2), 8.8 ± 0.2 µM; with A/PR/8/34 4 #8 cl3, 26 ± 4 µM; in the assay on A/PR/8/34 6c #8 cl3, 24 ± 3 µM.
In the case of `CC(N)C12CC3CC(CC(C3)C1)C2` (stereo not drawn) [Rimantadine, rimantadine], the “Activity against S31N mutant A/M2” value on S31N mutant A/M2 was “inactive”. Also, the “Activity against V27A mutant A/M2” value on V27A mutant A/M2 is “inactive”. The EC50 is at least 158 µM in assay [1], 7 ± 1.7 µM with A/X-31 (A/H3N2), over 100 µM in the assay with A/PR/8/34 4 #8 cl3 and over 100 µM in the assay with A/PR/8/34 6c #8 cl3.
For `CC(=O)N[C@H]1[C@H]([C@H](O)[C@H](O)CO)OC(C(=O)O)=C[C@@H]1N=C(N)N` [Zanamivir], the EC50 worked out at 6 ± 1.3 µM with A/H1N1 (A/PR/8/34) and 0.16 ± 0.05 µM in the assay on A/X-31 (A/H3N2).
